From ChEMBL document CHEMBL1136387, “Unique spirocyclopiperazinium salt. Part 2: synthesis and structure-activity relationship of dispirocyclopiperazinium salts as analgesics” (Bioorg Med Chem Lett, 2003)

Experiments:
Mus musculus [1] = test: (§1) In vivo analgesic activity evaluated by using acetic acid writhing test in mice administered subcutaneously at a dose of 2 mg/kg; format: functional; conditions: sc, route subcutaneous
Mus musculus [2] = test: as §1; format: functional; conditions: sc, route subcutaneous; remark: listed apart in the source
Mus musculus [3] = species on record: Mus musculus; test: […]; format: functional; conditions: sc, route subcutaneous
[4] = Toxicity in mice administered subcutaneously; conditions: mouse, in vivo, sc
Mus musculus [5] = test: (§2) In vivo analgesic activity evaluated by using acetic acid writhing test in mice administered subcutaneously at a dose of 0.2 mg/kg; format: functional; conditions: sc, route subcutaneous
Mus musculus [6] = test: as §2; format: functional; conditions: sc, route subcutaneous; remark: listed apart in the source
Mus musculus [7] = test: In vivo analgesic activity evaluated by using acetic acid writhing test in mice administered subcutaneously at a dose of 0.05 mg/kg; format: functional; conditions: sc, route subcutaneous
Mus musculus [8] = test: (§3) In vivo analgesic activity evaluated by using acetic acid writhing test in mice administered subcutaneously at a dose of 10 mg/kg; format: functional; conditions: sc, route subcutaneous
Mus musculus [9] = test: (§4) In vivo analgesic activity evaluated by using acetic acid writhing test in mice administered subcutaneously at a dose of 5 mg/kg; format: functional; conditions: sc, route subcutaneous
Mus musculus [10] = test: as §3; format: functional; conditions: sc, route subcutaneous; remark: listed apart in the source
Mus musculus [11] = test: as §4; format: functional; conditions: sc, route subcutaneous; remark: listed apart in the source
Mus musculus [12] = test: In vivo analgesic activity evaluated by using acetic acid writhing test in mice administered subcutaneously at a dose of […]; format: functional; conditions: sc, dose 2.5 mg/kg, route subcutaneous
Mus musculus [13] = test: In vivo analgesic activity evaluated by using acetic acid writhing test in mice administered subcutaneously at a dose of 20 mg/kg; format: functional; conditions: sc, route subcutaneous
Mus musculus [14] = test: (§5) In vivo analgesic activity evaluated by using acetic acid writhing test in mice administered subcutaneously at a dose of 0.02 mg/kg; format: functional; conditions: sc, route subcutaneous
Mus musculus [15] = test: as §5; format: functional; conditions: sc, route subcutaneous; remark: listed apart in the source

Compound: C(CCCN1CC[N+]2(CCCC2)CC1)CCN1CC[N+]2(CCCC2)CC1
- inhibition in vivo at 2 mg/kg (Mus musculus [1]): 72.4%
- inhibition in vivo at 2 mg/kg (Mus musculus [2]): 56.6%

Compound: CCCCCCCCCCCCCCCCCCOC(CN1CC[N+]2(CCCC2)CC1)CN1CC[N+]2(CCCC2)CC1
- inhibition in vivo at 20 mg/kg (Mus musculus [3]): 24%

Compound: O=C(CCCC(=O)N1CC[N+]2(CCCC2)CC1)N1CC[N+]2(CCCC2)CC1.[Br-].[Br-]
- inhibition in vivo at 2 mg/kg (Mus musculus [1]): 67.4%
- inhibition in vivo at 2 mg/kg (Mus musculus [2]): 0%
- Death dose [4]: 20 mg/kg

Compound: O=C(CCCCC(=O)N1CC[N+]2(CCCC2)CC1)N1CC[N+]2(CCCC2)CC1.[Br-].[Br-]
- inhibition in vivo at 0.2 mg/kg (Mus musculus [5]): 8.1%
- inhibition in vivo at 0.2 mg/kg (Mus musculus [6]): 70.4%
- Death dose [4]: 2 mg/kg

Compound: C[N+]1(C)CCN(C(=O)CCCCC(=O)N2CC[N+](C)(C)CC2)CC1
- inhibition in vivo at 0.05 mg/kg (Mus musculus [7]): 60.1%

Compound: C(CN1CC[N+]2(CCCC2)CC1)CN1CC[N+]2(CCCC2)CC1
- inhibition in vivo at 10 mg/kg (Mus musculus [8]): 4.7%
- inhibition in vivo at 5 mg/kg (Mus musculus [9]): 0%
- inhibition in vivo at 10 mg/kg (Mus musculus [10]): 96%
- inhibition in vivo at 5 mg/kg (Mus musculus [11]): 45.5%

Compound: CCCCCCOC(CN1CC[N+]2(CCCC2)CC1)CN1CC[N+]2(CCCC2)CC1
- inhibition in vivo at 10 mg/kg (Mus musculus [10]): 91%
- inhibition in vivo at […] (Mus musculus [12]): 49%
- inhibition in vivo at 20 mg/kg (Mus musculus [13]): 100%
- inhibition in vivo at 5 mg/kg (Mus musculus [11]): 61%

Compound: C(CCCCN1CC[N+]2(CCCC2)CC1)CCCN1CC[N+]2(CCCC2)CC1
- inhibition in vivo at 2 mg/kg (Mus musculus [1]): 98.6%
- inhibition in vivo at 2 mg/kg (Mus musculus [2]): 0%

Compound: O=C(CC(=O)N1CC[N+]2(CCCC2)CC1)N1CC[N+]2(CCCC2)CC1.[Br-].[Br-]
- inhibition in vivo at 2 mg/kg (Mus musculus [1]): 0%
- inhibition in vivo at 2 mg/kg (Mus musculus [2]): 0%
- Death dose [4]: 40 mg/kg

Compound: O=C(CCC(=O)N1CC[N+]2(CCCC2)CC1)N1CC[N+]2(CCCC2)CC1.[Br-].[Br-]
- inhibition in vivo at 2 mg/kg (Mus musculus [1]): 47.7%
- inhibition in vivo at 2 mg/kg (Mus musculus [2]): 0%
- Death dose [4]: 20 mg/kg

Compound: O=C(CCCCC(=O)N1CCNCC1)N1CCNCC1
- inhibition in vivo at 5 mg/kg (Mus musculus [11]): 34.5%

Compound: CCOC(CN1CC[N+]2(CCCC2)CC1)CN1CC[N+]2(CCCC2)CC1
- inhibition in vivo at 10 mg/kg (Mus musculus [10]): 46%
- inhibition in vivo at 20 mg/kg (Mus musculus [13]): 90%
- inhibition in vivo at 5 mg/kg (Mus musculus [11]): 34%

Compound: O=C(CCCCCCC(=O)N1CC[N+]2(CCCC2)CC1)N1CC[N+]2(CCCC2)CC1.[Br-].[Br-]
- inhibition in vivo at 0.02 mg/kg (Mus musculus [14]): 27.5%
- inhibition in vivo at 0.02 mg/kg (Mus musculus [15]): 0%
- Death dose [4]: 0.2 mg/kg

Compound: C(CCCCCN1CC[N+]2(CCCC2)CC1)CCCCN1CC[N+]2(CCCC2)CC1
- inhibition in vivo at 2 mg/kg (Mus musculus [1]): 84.6%
- inhibition in vivo at 2 mg/kg (Mus musculus [2]): 0%

Compound: O=C(CCCCCC(=O)N1CC[N+]2(CCCC2)CC1)N1CC[N+]2(CCCC2)CC1.[Br-].[Br-]
- inhibition in vivo at 0.02 mg/kg (Mus musculus [14]): 0%
- inhibition in vivo at 0.02 mg/kg (Mus musculus [15]): 0%
- Death dose [4]: 0.2 mg/kg

Compound: CCCCCCCCCCCCOC(CN1CC[N+]2(CCCC2)CC1)CN1CC[N+]2(CCCC2)CC1
- inhibition in vivo at 20 mg/kg (Mus musculus [13]): 18%

Compound: CN1CCN(C(=O)CCCCC(=O)N2CCN(C)CC2)CC1
- inhibition in vivo at 10 mg/kg (Mus musculus [10]): 10.9%
